From patent US10426762B2, “Inhibitors of hepatitis C virus polymerase” (COCRYSTAL DISCOVERY, INC., priority 2012, dated 2019) come the findings set out here.

In general, EC50 refers to the concentration that produces a half-maximal response. Read a high EC50 as a need for much substance.

The first assay deals with HCV1b replicon. The assay can be described thus: HCV replicon assay (Huh-7 cell line with HCV1b replicon containing luciferase reporter) and EC50 determination. The assay is classed as cell-based. To be noted: Hepatitis C virus; Table 1; Huh-7 HCV1b replicon luciferase reporter, 72 hr, triplicate. As to the method:
Example 213—HCV Replicon Assay and EC50 Determination
The antiviral activity of compounds against hepatitis C virus was determined by a hepatitis C virus replicon reporter cell line developed by Bartenschlager (Lohmann et al., Science 1999, 285:110-113; Bartenschlager et al., Antiviral Res 2003, 60:91-102). This cell-based assay utilized a liver cell carcinoma (Huh-7) cell line stably transformed with an HCV1b replicon containing a luciferase reporter gene. Varied concentrations of compounds were added to the reporter cell line, and further incubated at 37° C. for 72 hr in DMEM supplemented with 10% FCS. The inhibitory effects of experimental compounds or the reference compound, interferon alpha (INFα), on HCV replication were measured by luciferase activity using the Britelite™ plus luminescence reporter gene kit (Perkin Elmer, Shelton, Conn.). The Britelite plus reagent was added to the 96-well plates containing the HCV reporter cells, and luminescence was measured within 15 min using a Wallac 1450 Microbeta® Trilux liquid scintillation counter. EC50 values were calculated using GraFit 6 and GraphPad Prism 5 from triplicate HCV replicon assays.
For orientation: In antiviral work, replicon cells carry a viral genome segment that copies itself.
For `Cc1cc(-c2cc(C3=C(C4CCC(C)CC4)CN(C)CC3)c(C(=O)O)s2)ccc1NC(=O)c1cscn1` (stereo not shown) [Example 178, 5-(3-methyl-4-(thiazole-4-carboxamido)phenyl)-3-(1-methyl-5-(4-methylcyclohexyl)-1,2,3,6-tetrahydropyridin-4-yl)thiophene-2-carboxylic acid], the 50% effective concentration (EC50) was below 3000 nM.

The molecule `CC1CCC(C2=C(c3cc(-c4ccc(NC(=O)c5cscn5)c(C#N)c4)sc3C(=O)O)CCN(C)C2)CC1` (stereo not shown) [Example 180, 5-(3-cyano-4-(thiazole-4-carboxamido)phenyl)-3-(1-methyl-5-(4-methylcyclohexyl)-1,2,3,6-tetrahydropyridin-4-yl)thiophene-2-carboxylic acid] registered a half-maximal effective concentration (EC50) below 3000 nM. `CC1CCC(C2=C(c3cc(-c4ccc(NC(=O)c5cscn5)c(C(F)(F)F)c4)sc3C(=O)O)CCN(C)C2)CC1` (stereo not shown) [Example 183, 3-(1-methyl-5-(4-methylcyclohexyl)-1,2,3,6-tetrahydropyridin-4-yl)-5-(4-(thiazole-4-carboxamido)-3-(trifluoromethyl)phenyl)thiophene-2-carboxylic acid]: the EC50 was below 3000 nM. On the same count and under the same terms, next, `CC1CCC(C2=C(c3cc(-c4ccc(-c5cc6n(C)c(=O)ccn6n5)cc4)sc3C(=O)O)CCN(C)C2)CC1` (stereo not shown) [Example 185, 3-(1-methyl-5-(4-methylcyclohexyl)-1,2,3,6-tetrahydropyridin-4-yl)-5-(4-(4-methyl-5-oxo-4,5-dihydropyrazolo[1,5-a]pyrimidin-2-yl)phenyl)thiophene-2-carboxylic acid]: below 3000 nM.

The assay is the same for the next values; noted with them: Hepatitis C virus; Table 2; Huh-7 HCV1b replicon luciferase reporter, 72 hr, triplicate.
With `CC1CCC(C2=C(c3cc(-c4ccc(NC(=O)c5cscn5)cc4)sc3C(=O)O)CN(CCO)CC2)CC1` (stereo not shown) [Example 188, 3-(1-(2-hydroxyethyl)-4-(4-methylcyclohexyl)-1,2,5,6-tetrahydropyridin-3-yl)-5-(4-(thiazole-4-carboxamido)phenyl)thiophene-2-carboxylic acid], the half-maximal effective concentration (EC50) was below 3000 nM. `CC1CCC(C2=C(c3cc(-c4ccc(-c5cc6ncccn6n5)cc4)sc3C(=O)O)CN(CCO)CC2)CC1` (stereo not shown) [Example 191, 3-(1-(2-hydroxyethyl)-4-(4-methylcyclohexyl)-1,2,5,6-tetrahydropyridin-3-yl)-5-(4-(pyrazolo[1,5-a]pyrimidin-2-yl)phenyl)thiophene-2-carboxylic acid] came in with an EC50 below 3000 nM. `CC1CCC(C2=C(c3cc(-c4ccc(-c5cc6ncccn6n5)cc4)sc3C(=O)O)CN(CC(O)CO)CC2)CC1` (stereo not shown) [Example 192, 3-(1-(2,3-dihydroxypropyl)-4-(4-methylcyclohexyl)-1,2,5,6-tetrahydropyridin-3-yl)-5-(4-(pyrazolo[1,5-a]pyrimidin-2-yl)phenyl)thiophene-2-carboxylic acid]: the EC50 is below 3000 nM.

Take `CC1CCC(C2=C(c3cc(-c4ccc(NC(=O)c5cscn5)cc4)sc3C(=O)O)CN(Cc3cnn(C)c3)CC2)CC1` (stereo not shown) [Example 193, 3-(1-((1-methyl-1H-pyrazol-4-yl)methyl)-4-(4-methylcyclohexyl)-1,2,5,6-tetrahydropyridin-3-yl)-5-(4-(thiazole-4-carboxamido)phenyl)thiophene-2-carboxylic acid]: the EC50 is below 3000 nM.

Molecule `CC1CCC(C2=C(c3cc(-c4ccc(-c5cc6ncccn6n5)cc4)sc3C(=O)O)CN(Cc3cnn(C)c3)CC2)CC1` (stereo not shown) [Example 194, 3-(1-((1-methyl-1H-pyrazol-4-yl)methyl)-4-(4-methylcyclohexyl)-1,2,5,6-tetrahydropyridin-3-yl)-5-(4-(pyrazolo[1,5-a]pyrimidin-2-yl)phenyl)thiophene-2-carboxylic acid] displayed a concentration for a half-maximal effect (EC50) below 3000 nM.

Regarding `Cc1nn(C)cc1CN1CCC(C2CCC(C)CC2)=C(c2cc(-c3ccc(NC(=O)c4cscn4)cc3)sc2C(=O)O)C1` (stereo not shown) [Example 195, 3-(1-((1,3-dimethyl-1H-pyrazol-4-yl)methyl)-4-(4-methylcyclohexyl)-1,2,5,6-tetrahydropyridin-3-yl)-5-(4-(thiazole-4-carboxamido)phenyl)thiophene-2-carboxylic acid], the EC50 was below 3000 nM.
